Experimental data as given in patent US20070213359A1 (ACADIA Pharmaceuticals Inc., priority 2005, published 2007).
Read-outs that look alike come from different tables or passages of the source.

Tests used:
Ghrelin receptor = Ghrelin receptor (Homo sapiens, UniProt Q92847); assay: Receptor Selection and Amplification Technology (R-SAT) assay; type: cell-based; set-up: expressed in transfected cells; host or cells: NIH3T3; conditions: for Emax: read-out: RSAT Eff(%)
GHSR1a receptor = molecular target: T1, GHSR1a receptor (Homo sapiens, UniProt Q92847); assay: 125I-Ghrelin binding assay
T1 construct: expressed in transfected cells; host or cells: HEK293 (membranes)
T1 sequence (Q92847 whole entry): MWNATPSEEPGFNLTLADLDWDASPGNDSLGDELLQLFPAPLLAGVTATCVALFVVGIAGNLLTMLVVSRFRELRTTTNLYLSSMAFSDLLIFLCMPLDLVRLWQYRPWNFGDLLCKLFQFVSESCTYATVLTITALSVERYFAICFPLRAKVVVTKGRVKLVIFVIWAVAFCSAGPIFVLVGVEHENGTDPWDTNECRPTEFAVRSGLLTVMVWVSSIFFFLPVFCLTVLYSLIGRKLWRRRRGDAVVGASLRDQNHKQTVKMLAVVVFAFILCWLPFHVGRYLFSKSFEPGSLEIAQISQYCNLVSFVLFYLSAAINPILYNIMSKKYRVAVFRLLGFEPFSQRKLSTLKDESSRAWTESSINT
Description: Plasmid DNA containing the GHSR1a receptor (12.5 ug/dish) in 0.675 ml DMEM was transfected into the cells by mixing with 180 ul PolyFect, 15 min later mixing in 2.25 ml 10% CS/DMEM, and transferring the mixture into the dish. At 16-18 h post transfection, medium was replaced with 25 ml fresh 10% FCS/1% PSG/DMEM to each dish for another 18-20 h. At approximately 48 hours post-transfection, cells were harvested in ice-cold membrane buffer (20 mM HEPES, 6 mM MgCl2, 1 mM EDTA, pH to 7.2) using a cell scraper, and pelleted by centrifugation.
Pelleted cells were added to a nitrogen cavitation chamber and 900 bar of pressure applied for 30 min. The pressure was slowly released the cavitated cells collected in 50 ml falcon tubes. The tubes were centrifuged at 1000 rpm, 4° C. for 10 min, and the supernatant collected. This centrifugation and collection was repeated two more times until the supernatant was free of precipitate (membranes are still in suspension). The supernatant was poured into a 50 ml centrifuge tube and centrifuged at 10.000 rpm, 4° C. for 20 min. The supernatant was discarded and the pellet re-suspended in 750 μl membrane binding buffer using a chilled 1 ml syringe with 25G5/8 needle to re-suspend membranes. The protein concentration was determined using the BioRad Protein Assay Dye Reagent according to the manufacturers instructions. The protein concentration was adjusted to 5 mg/ml and aliquots snap-frozed and stored at −80 C until use.
Membranes were thawed rapidly; diluted with binding buffer (25 mM Hepes+5 mM MgCl2, 1 mM CaCl2, 2.5 mM EDTA and 0.2% BSA) to a protein concentration of 0.8 ug/30 ul and placed on ice. 96-well plates (U-bottom wells) were prepared with serial dilutions (8 doses, 40 ul/w) of the test compounds. Membranes (30 uL/well) were then added, and incubated with test ligands for 30 min at room temperature with shaking. […] Binding was terminated by filtration through GF/B filters (presoaked with 0.1% polyethylenimine) with a Brandel 96-well harvester. The filters were washed with ice-cold binding buffer (150 ml/plate) and allowed to air-dry for 30 min. 50 ul MicroScient-20 cocktail was added to each dried well, the plates were sealed, and counted for 2 min/well using a TopCount scintillation counter (Packard).

[1] = […], '—' not defined (nd used separately), read-out: RSAT pIC50 (converted)
[2] = Binding pKi, displacement of 125I-ghrelin (0.053 nM), membranes of HEK293 cells transfected with GHSR1a, Cheng-Prussoff, '—' not defined
[3] = displacement of 125I-ghrelin (0.053 nM), membranes of HEK293 cells transfected with GHSR1a, Cheng-Prussoff, '—' not defined, read-out: Binding pKi (converted)
[4] = negative logarithm of ligand concentration causing 50% inhibition of constitutive receptor response, transfected NIH3T3 cells, '—' not defined (nd used separately), read-out: RSAT pIC50 (converted)
[5] = percent inhibition at saturating ligand, normalized to reference ligand Substance P analog = 100%

Chain of Ghrelin receptor (Q92847 whole entry): as above

Row | Compound | IC50 (Ghrelin receptor; [1]) [nM] | Emax (Ghrelin receptor) [%] | Ki (GHSR1a receptor; [2]) [nM] | also measured
1 | COc1cccc2c(C(=O)NCc3cccc(C)c3)cn(CCCN3C4CCC3CC(Oc3ccc(Cl)cc3)C4)c12 (centres unmarked) | 0.631 | 92 | 50.1 | –
2 | COc1cccc2c(C(=O)C3CC3)cn(CCCN3CCCN(Cc4ccccc4Cl)CC3)c12 | 0.794 | 99 | 7.94 | –
3 | COc1cccc2c(C(=O)NCc3cccc(Cl)c3)cn(CCCN3C4CCC3CC(CCc3ccccc3)C4)c12 (centres unmarked) | 1 | 115 | 7.94 | –
4 | CCCCC1CCN(CCCn2cc(C(=O)NCc3cccc(Cl)c3)c3cccc(OC)c32)CC1 | – | 94 | – | IC50 (Ghrelin receptor; RSAT pIC50): 3.98 nM; Ki (GHSR1a receptor; Binding pKi): 50.1 nM
5 | CCCCC1CCN(CCCn2cc(C(=O)C3CC3)c3cccc(OC)c32)CC1 | 3.98 | 95 | 398 | –
6 | CCCCC1CCN(CCCn2cc(C(=O)c3ccccc3)c3cccc(OC)c32)CC1 | 5.01 | 98 | 200 | –
7 | CC(=O)c1cn(CCCN2CCC(c3nc4ccccc4s3)CC2)c2c(Cl)cccc12 | 5.01 | 117 | 398 | –
8 | COc1ccccc1C1CCN(CCCn2cc(C(=O)C3CC3)c3cccc(OC)c32)CC1 | 5.01 | 102 | 158 | –
9 | COc1cccc2c(C(=O)NCC(C)C)cn(CCCN3C4CCC3CC(CC(=O)c3ccccc3)C4)c12 (centres unmarked) | 7.94 | 145 | 50.1 | –
10 | COc1cccc2c(C(=O)NCc3cccc(C)c3)cn(CCCN3CCC(Oc4ccc(Cl)cc4)CC3)c12 | 7.94 | 115 | 126 | –
11 | COc1cccc2c(C(=O)C3CC3)cn(CCCN3C4CCC3CC(CC(=O)c3ccc(Cl)cc3)C4)c12 (centres unmarked) | 7.94 | 70 | 39.8 | –
12 | CC(=O)c1cn(CCCN2C3CCC2CC(CC(=O)c2ccccc2)C3)c2c(Br)cccc12 (centres unmarked) | 7.94 | 111 | 100 | –
13 | COc1cccc2c(C(=O)NCc3cccc(C)c3)cn(CCCN3C4CCC3CC(CC(=O)c3ccc(Cl)cc3)C4)c12 (centres unmarked) | 10 | 110 | 15.8 | –
14 | COc1cccc2c(C(=O)NCc3cccc(C)c3)cn(CCCN3CCC(Oc4ccccc4Cl)CC3)c12 | 12.6 | 96 | 79.4 | –
15 | COc1cccc2c(C(=O)NCc3cccc(C)c3)cn(CCCN3CCCN(CCc4ccccc4)CC3)c12 | 12.6 | 110 | 15.8 | –
16 | COc1cccc2c(C(=O)NCc3cccc(C)c3)cn(CCCN3CCCN(Cc4ccccc4Cl)CC3)c12 | 15.8 | 119 | 79.4 | –
17 | COc1cccc2c(C(=O)NCc3cccc(C)c3)cn(CCCN3CCCN(Cc4ccc(F)cc4)CC3)c12 | 15.8 | 129 | 100 | –
18 | COc1cccc2c(C(C)=O)cn(CCCN3CCC(N(C4CC4)S(=O)(=O)c4ccccc4)CC3)c12 | 15.8 | 105 | 2510 | –
19 | COc1cccc2c(C(=O)c3ccccc3)cn(CCCN3CCCN(CCc4ccccc4)CC3)c12 | 15.8 | 124 | 25.1 | –
20 | COc1cccc2c(C(=O)NCc3cccc(Cl)c3)cn(CCCN3CCCN(CCc4ccccc4)CC3)c12 | 20 | 125 | 158 | –
21 | COc1cccc2c(C(=O)NCc3cccc(C)c3)cn(CCCN3[C@@H]4CC[C@H]3CC(CC(=O)c3ccccc3)C4)c12 (some centres unmarked) | – | – | 63.1 | –

Row | Compound | IC50 (Ghrelin receptor; [1]) [nM] | Emax (Ghrelin receptor) [%] | Ki (GHSR1a receptor; [2]) [nM] | also measured
22 | CC(=O)c1c(C)n(CCCN2C3CCC2CC(CCc2ccccc2)C3)c2c(Br)cccc12 (centres unmarked) | – | – | – | Ki (GHSR1a receptor; [3]): 200 nM
23 | O=C(c1cn(CCCN2C3CCC2CC(CCc2ccc(Cl)cc2)C3)c2ncccc12)C(F)(F)F (centres unmarked) | – | – | – | Ki (GHSR1a receptor; [3]): 251 nM
24 | CCc1cccc2c(C(C)=O)cn(CCCN3C4CCC3CC(CC(=O)c3ccc(Cl)cc3)C4)c12 (centres unmarked) | – | – | – | Ki (GHSR1a receptor; [3]): 501 nM
25 | CC(=O)c1c(C)n(CCCN2CCC(CCOc3ccc(Cl)cc3)CC2)c2c(Br)cccc12 | – | – | – | Ki (GHSR1a receptor; [3]): 631 nM
26 | COc1cccc2c(C(C)=O)cn(CC(C)CN3CCC(c4nc(-c5cccnc5)no4)CC3)c12 (centres unmarked) | – | 83 | – | –
27 | COc1cccc2c(C(=O)Cc3ccccc3)cn(CCCN3CCN(CCOc4ccc(Cl)c5ccccc45)CC3)c12 | – | 46 | – | –
28 | CC(=O)c1cn(CCCN2CCN(CCOc3ccc(Cl)cc3)CC2)c2c(C#N)cccc12 | – | 4 | – | –
29 | CC(=O)c1cn(CCCNCCOc2ccccc2)c2c(C#N)cccc12 | – | 11 | – | –
30 | CC(=O)c1cn(CCCN2CCN(CCOc3ccc(Cl)c4ccccc34)CC2)c2c(C#N)cccc12 | – | 53 | – | –
31 | CC(=O)c1cn(CCCN2CCCC(Cc3ccccc3Cl)C2)c2c(C)cccc12 (centres unmarked) | – | 38 | – | –
32 | CC(=O)c1cn(CCCN2CCC(Cc3ccccc3Cl)C2)c2c(C)cccc12 (centres unmarked) | – | 47 | – | –
33 | CC(=O)c1cn(CCCN2C3CCC2CC(CC(=O)c2ccc(Cl)cc2)C3)c2c(C)cccc12 (centres unmarked) | – | 19 | – | –
34 | CC(=O)c1cn(CCCN2CCC3(CC2)CC(=O)c2ccccc2O3)c2c(Br)cccc12 | – | 3 | – | –
35 | CC(=O)c1cn(CCCN2CCCC(Cc3ccccc3Cl)C2)c2c(Br)cccc12 (centres unmarked) | – | -18 | – | –
36 | CC(=O)c1cn(CCCN2C3CCC2CC(CC(=O)c2ccc(Cl)cc2)C3)c2c(Br)cccc12 (centres unmarked) | – | 33 | – | –
37 | CC(=O)c1cn(CCCN2C3CCC2CC(Oc2ccccc2Cl)C3)c2c(Br)cccc12 (centres unmarked) | – | 65 | – | –
38 | COc1cccc2c(C(=O)C3CC3)cn(CCCN3CCCC(Cc4ccccc4Cl)C3)c12 (centres unmarked) | – | 28 | – | –
39 | CC(=O)c1cn(CCCN2CCC3(CC2)CC(=O)c2ccccc2O3)c2c(Cl)cccc12 | – | 40 | – | –
40 | CC(=O)c1cn(CCCN2CCCC(Oc3ccc(Cl)cc3)C2)c2c(Cl)cccc12 (centres unmarked) | – | 7 | – | –
41 | CC(=O)c1cn(CCCN2CCCC(Cc3ccccc3Cl)C2)c2c(Cl)cccc12 (centres unmarked) | – | 47 | – | –
42 | CC(=O)c1cn(CCCN2CCC(Cc3ccccc3Cl)C2)c2c(Cl)cccc12 (centres unmarked) | – | 37 | – | –

Row | Compound | IC50 (Ghrelin receptor; [1]) [nM] | Emax (Ghrelin receptor) [%] | Ki (GHSR1a receptor; [2]) [nM] | also measured
43 | CC(=O)c1cn(CCCN2C3CCC2CC(Oc2ccccc2Cl)C3)c2c(Cl)cccc12 (centres unmarked) | – | 60 | – | –
44 | COc1cccc2c(C(=O)c3ccccc3)cn(CCCN3CCCC(Oc4ccc(Cl)cc4)C3)c12 (centres unmarked) | – | 48 | – | –
45 | COc1cccc2c(C(=O)NCc3cccc(C)c3)cn(CCCN3CCCC(Oc4ccc(Cl)cc4)C3)c12 (centres unmarked) | – | 14 | – | –
46 | COc1cccc2c(C(=O)NCc3cccc(Cl)c3)cn(CCCN3CCCC(Oc4ccc(Cl)cc4)C3)c12 (centres unmarked) | – | 31 | – | –
47 | CC(=O)c1c(C)n(CCCNCCOc2ccccc2)c2c(Br)cccc12 | – | 5 | – | –
48 | CCc1cccc2c(C(C)=O)cn(CCCN3CCN(CCOc4ccc(Cl)c5ccccc45)CC3)c12 | – | 29 | – | –
49 | CC(=O)c1cn(CCCNC2Cc3ccccc3C2)c2c(C#N)cccc12 | – | 6 | – | –
50 | CC(=O)c1cn(CCCN2CCCC(Oc3ccc(Cl)cc3)C2)c2c(C)cccc12 (centres unmarked) | – | -2 | – | –
51 | COc1cccc2c(C(=O)NCC(C)C)cn(CCCN3CCCC(Oc4ccc(Cl)cc4)C3)c12 (centres unmarked) | – | 9 | – | –
52 | COc1cccc2c(C(C)=O)cn(CCCN3CCC(Oc4ccc(F)cc4)CC3)c12 [drawing 241] | – | – | – | IC50 (Ghrelin receptor; [4]): 2.51 nM; RSAT Eff(%) (Ghrelin receptor; [5]): 104%
53 | COc1cccc2c(C(C)=O)cn(CCCN3CCC(Oc4ccc(F)cc4)CC3)c12 [drawing 256] | 3.98 | 119 | – | –
54 | CC(=O)c1cn(CCCN2CCC(c3nc4ccccc4s3)CC2)c2ccccc12 [drawing 462] | – | – | – | IC50 (Ghrelin receptor; [4]): 100 nM; Emax (Ghrelin receptor; [5]): 115%
55 | CC(=O)c1cn(CCCN2CCC(c3nc4ccccc4s3)CC2)c2ccccc12 [drawing 466] | – | – | – | IC50 (Ghrelin receptor; [4]): 126 nM; RSAT Eff(%) (Ghrelin receptor; [5]): 99%
56 | CC(=O)c1cn(CCCN2CCC(Oc3ccccc3Cl)CC2)c2ccccc12 [drawing 499] | – | – | – | Emax (Ghrelin receptor; [5]): 105%
57 | CC(=O)c1cn(CCCN2CCC(Oc3ccc(F)cc3)CC2)c2ccccc12.O=C(O)C(=O)O [drawing 520] | – | – | – | IC50 (Ghrelin receptor; [4]): 251 nM; RSAT Eff(%) (Ghrelin receptor; [5]): 128%
58 | COc1ccccc1C1CCN(CCCn2cc(C(C)=O)c3ccccc32)CC1 [drawing 533] | – | – | – | IC50 (Ghrelin receptor; [4]): 316 nM; Emax (Ghrelin receptor; [5]): 109%
59 | O=C(NCc1cccc(Cl)c1)c1cn(CCCN2CCC(Oc3ccc(F)cc3)CC2)c2ccccc12.O=C(O)C(=O)O [drawing 596] | – | – | – | RSAT Eff(%) (Ghrelin receptor): 142%
60 | COc1cccc2c(C(=O)NCC(C)C)cn(CCCN3CCC(c4nc5ccccc5s4)CC3)c12 [drawing 706] | – | – | 501 | –
61 | CCCOC1CCN(CCCn2cc(C(C)=O)c3cccc(OC)c32)CC1 [drawing 713] | – | – | – | Ki (GHSR1a receptor; [3]): 1260 nM
